Results on one molecule are retold here after US9963476B2, “Antioxidant compound having anti atherosclerotic effect and preparation thereof” (Council of Scientific and Industrial Research, priority 2015, dated 2018).

The structures appear in SMILES notation.

Data set [1] relates to AMPK1-α phosphorylation (Thr-172). The data set is described as follows: Western blot of AMPK phosphorylation in HAEC. It is filed as cell-based, human. How it is done: Previously, it was shown that AMPK co-immunoprecipitates with cardiac endothelial NO synthase (eNOS) and phosphorylates Ser-1177 in the presence of Ca^2+-calmodulin (CaM) to activate eNOS both in vitro and during ischaemia in rat hearts (FEBS Lett. (1999) 443:285-289). To test whether Mito-Esc mediates increased phosphorylation of eNOS through AMPK activation, initially, HAEC were treated various concentrations of Mito-Esc (1-5 μM) for 8 h and AMPK1-α phosphorylation (Thr-172) levels were measured. […] Next, we investigated the phospho-AMPK1-α levels in HAEC treated with H2O2 in the presence or absence of either Mito-Esc or native esculetin.
(Immunoblotting shows a protein as a band on a membrane.)

Data set [2] has as its system mitochondrial membrane potential in HAEC. Description: Mitochondrial transmembrane potential (JC-1 / Mito-Sensor dye). It is filed as cell-based, human. To be noted: H2O2 500 μM, 16 h. How it is done: Mitochondrial potential was assessed by using the fluorescent potentiometric JC-1 dye. In healthy cells, JC-1 forms J-aggregates that display a strong red fluorescence with excitation of 560 nm and emission wavelength at 595 nm. In apoptotic or unhealthy cells, JC-1 exists as monomers that display a strong green fluorescence with excitation and emission at 485 nm and 535 nm, respectively. At the end of the treatments, cells were washed with Dulbeccos phosphate buffer solution (DPBS) and incubated with JC-1 dye ([…]) for 20 min. Cells were again washed twice with DPBS and maintained in culture medium. Fluorescence was monitored by using Olympus fluorescence microscope with Rhodamine and Fluorescein isothiocyanate (FITC) filters.
(§1) Ang-II is known to increase oxidative stress through increased production of H2O2 (Doughan A K, Harrison D G, Dikalov S I. Circ Res (2008) 102:488-96). […] Further, we assessed the effect of Mito-Esc on H2O2-induced mitochondrial membrane depolarization. HAEC were treated with H2O2 (500 μM) in the presence or absence of Mito-Esc for a period of 16 h and mitochondrial membrane potential was measured using a mitochondrial membrane sensor kit. […] In apoptotic cells, membrane potentials are altered and the Mito-Sensor dye cannot accumulate in mitochondria and, thus, remain as monomers leading to a green fluorescence.

Data set [3] relates to nitric oxide generation in HAEC. Description: Intracellular nitric oxide levels by DAF-2DA fluorescence. It is filed as cell-based, human. To be noted: 2.5 μM, 4 h. How it is done: Intracellular nitric oxide levels were monitored by using the Diaminofluorescein-diacetate (DAF-2DA) fluorescence probe. After the treatments, cells were washed with DPBS and incubated in fresh culture medium without fetal bovine serum (FBS). DAF-2DA was added at a final concentration of 5 μM, and the cells were incubated for 30 minutes. The cells were washed twice with DPBS and maintained in culture medium. Fluorescence was monitored by using Olympus fluorescence microscope with FITC filter (λex=488 nm and […]). Fluorescence intensity was calculated by Image-Pro plus7.0 software.
(§2) To gain mechanistic insight on Mito-Esc-mediated protection of endothelial cells from oxidant-induced endothelial cell death, initially we hypothesized that Mito-Esc may augment intracellular nitric oxide generation. To study this, HAEC were treated with both Mito-Esc and esculetin in the presence or absence of H2O2 for a period of 4 h and nitric oxide (NO) levels were monitored by DAF-2 derived green fluorescence. Previously, it has been shown that DAF-2 forms a fluorescent triazole-type product in the presence of an oxidant derived from nitric oxide and oxygen interaction (Proc. Natl. Acad. Sci. USA 99: 11127-11132; 2002.; Am. J. Physiol. Regul. Integ. Comp. Physiol. 286:R344-R431; 2004). […] Next, we investigated the possible role of endothelial nitric oxide synthase (eNOS) in mediating the Mito-Esc induced NO generation in HAEC. For this, endothelial cells were treated with various concentrations of Mito-Esc (1-5 μM) for a period of 8 h. […] To further substantiate the results of DAF fluorescence, eNOS phosphorylation was measured in HAEC incubated with either with H2O2 or Ang-II for 8 h in cells pretreated with Mito-Esc or native esculetin. It was observed that both H2O2 and Ang-II caused a reduction in Phospho eNOS (Ser-1177) levels (FIG. 4D). Ang-II treatment imposed a drastic inhibition of phospho-eNOS levels when compared to H2O2 treatment in endothelial cells (FIG. 4D).

Data set [4] deals with Ang-II-induced H2O2 production in HAEC. Description: H2O2 levels by Amplex red assay. It is filed as cell-based, human. To be noted: Ang-II 500 nM + Mito-Esc 2.5 μM, 16 h. How it is done: Amplex red reagent was used to detect the released H2O2 from cells. […] Immediately, formation of resorufin fluorescence was measured in multi mode reader (PerkinElmer) with λex=540 and λem=585.
as §1, with “kit. Mito-Sensor is a cationic dye that fluoresces differently in apoptotic and nonapoptotic cells.” for “kit.”

Data set [5] relates to HAEC. Description: Cellular uptake: Mito-Esc/esculetin quantified by ESI-MS in cytosolic and mitochondrial fractions of HAEC. The data set is classed as in vitro ADME, human. How it is done:
After the treatment, cells were washed thrice with PBS. Similarly Mito-Esculetin+ Ang-II treatment group, Ang-II alone treatment group and control Apo E^−/− mice aortic tissue was taken. The isolation of mitochondrial and cytosolic extracts was carried out using a commercially available Proteo Extract Cytosol/Mitochondria Fractionation Kit (Cat. no. QIA88-Merck, USA) according to manufacturer's instructions. Initially, mitochondrial and cytosolic fractions were separated using a commercially available kit as mentioned elsewhere. Mito-Esc was quantified in the mitochondrial and cytosolic fractions obtained from HAEC and aorta of ApoE^−/− mice of different treatment groups as mentioned in Animal Experiments section (Table-1). Electrospray ionization (ESI)-MS. ESI-MS (positive mode) measurements were performed using a quadrupole time-of-flight mass spectrometer (QSTAR XL, Applied Biosystems/MDS Sciex, Foster City, Calif., USA). The data acquisition was under the control of Analyst QS software (Applied Biosystems). For the CID (collision-induced dissociation) experiments, the precursor ions were selected using the quadrupole analyzer and the product ions were analyzed using the TOF analyzer.

In data set [6] the test system is eNOS phosphorylation (Ser-1177). Description: Western blot of eNOS phosphorylation in HAEC. The data set is classed as cell-based, human. The settings on record: 8 h. How it is done: as §2
Data set [7] has as its system TNF-α, IFN-γ, MCP-1, Mac-3. The data set is described as follows: Serum proinflammatory cytokines and Mac-3 levels in ApoE−/− mice.
Experimental: (§3) Experiments were conducted in 2-month-old male apolipoprotein E knockout (ApoE^−/−) mice according to the guidelines formulated for care and use of animals in scientific research (ICMR, New Delhi, India) at a CPCSEA (Committee for the Purpose of Control and Supervision of Experiments on Animals) registered animal facility. […] Animals were randomly divided into 3 groups each n=7:1) control 2) Ang-II treatment and 3) Mito-Esculetin+Ang-II treatment. Ang-II and Mito-Esculetin treatment groups received Ang-II (sigma) at a dose of 1.44 mg/kg/day for 6 weeks through sub-cutaneous route where as control group received normal saline. Mito-Esculetin treatment group received the compound at a dose of 0.5 mg/kg/day in normal drinking water. All animals were fed on normal chow throughout the study. After 6 weeks, all groups of animals were sacrificed as per standard protocols for euthanasia.
(§4) We further analyzed the vascular remodelling employing histological stains in tissue sections of thoracic aortas. […] In tune with this, we have also measured Mac-3 levels by flow cytometry.
Data set [8] deals with caspase-3 and -8 activation in HAEC. Description: Caspase-3 and -8 activity in HAEC lysates. It is filed as cell-based, human. To be noted: 2.5 μM pretreatment.
Experimental: Human aortic endothelial cells (HAECs) were obtained from ATCC (Manassas, Va.) and maintained (37° C. 5% CO2) in basal medium supplemented with 10% FBS, VEGF (5 ng/mL), hEGF (5 ng/mL), hFGF (5 ng/mL), IGF-1 (15 ng/mL), ascorbic acid (50 μg/mL), hydrocortisone (1 μg/mL), amphotericin (15 ng/mL), gentamicin (30 ng/mL) and heparin (0.75 Units/mL). Cells used in this study were between passages 4 and 9.
HAEC were washed twice with cold DPBS and lysed in buffer containing 10-mM Tris-HCl, 10-mM NaH2PO4/Na2HPO4 (pH, 7.5). 130-mM NaCl. 1% Triton, and 10-mM sodium pyrophosphate. Cell lysates were incubated with either with caspase-3 fluorogenic substrate (N-acetyl-Asp-Glu-Val-Asp-7-amido-4-methylcoumarin) or caspase-8 fluorogenic substrate (N-acetyl-Ileu-Glu-Thr-Asp-7 amido-4-methylcoumarin) at 37° C. for 1 h. The 7-amido-4-methyl-coumarin liberated was measured in a multi mode reader (PerkinElmer) with λex=380 nm and λem=460 nm.
Data set [9] deals with Ang-II-induced atherosclerosis in ApoE−/− mice. Description: Ang-II-induced aortic aneurysm and atheromatous plaque formation in ApoE−/− mice.
Experimental: as §3, §4
[10] abbreviates: ApoE−/− mice, thoracic aorta sections.

`O=c1cc(CCCCCCCC[P+](c2ccccc2)(c2ccccc2)c2ccccc2)c2cc(O)c(O)cc2o1.[Br-]` [Mito-Esc]: in data set [1] (1-5 μM, 8 h), the “concentration of maximum effect on phospho-AMPK1-α (Thr-172) levels” value came to 2.5 µM and the “phospho-AMPK1-α (Thr-172) levels” value is given as “dose-dependent increase”. Also, the “Ang-II-mediated inhibition of phospho-AMPK1-α” value in [1] (Ang-II 500 nM, co-incubation) is listed as “made cells resistant”. Also, the “AMPK1-α phosphorylation in the presence of H2O2” value in data set [1] (H2O2 500 μM, 2.5 μM, 8 h) was “greatly enhanced”. For the same molecule, the “H2O2-mediated mitochondrial membrane depolarization” value in data set [2] is listed as “significantly rescued”. For the same molecule, the “DAF-2 fluorescence (NO production), compound alone” value in data set [3] is recorded as “greatly enhanced”. The “H2O2-mediated depletion of NO levels” value in data set [3] (H2O2 500 μM) was “significantly restored”. For the same molecule, in data set [4], the “Ang-II-induced H2O2 levels” value was “completely reversed H2O2 levels to control conditions”. Moreover, the “accumulation in the mitochondria compared to native esculetin” value in [5] is “selectively accumulated in the mitochondria”. In data set [5] (HAEC, 2.5 μM, 24 h), this molecule had a Cytosolic fraction of 4488 ± 104 nmol/mg protein and a Mitochondrial fraction of 14523 ± 342 nmol/mg protein. Besides, the “phosphorylation of eNOS at Ser-1177” value in data set [6] (1-5 μM) is “dose-dependently increased”. The “oxidant-mediated decrease in eNOS-phosphorylation” value in data set [6] (H2O2 or Ang-II, pretreated cells) is reported as “caused cells resistant to oxidant-mediated decrease”. The “Ang-II-induced proinflammatory cytokines (TNF-α, IFN-γ, MCP-1) production” value in data set [7] (ApoE−/− mice serum) is reported as “significant inhibition”. In addition, the “Mac-3 levels by flow cytometry” value in data set [7] (ApoE−/− mice, by 30 days of treatment) is on record as “inhibition of Mac3 levels”. Besides, the “H2O2 and Ang-II-induced caspase-3 and -8 activation” value in [8] is “markedly resistant”. Further, the “thick fibrous mature connective tissue around atheroma (Masson trichrome staining)” value in data set [9] (ApoE−/− mice aorta) was “almost disappeared”. In addition, the “Ang-II-induced plaque extension, micro/pseudo aneurysm formation and maximal aortic diameters” value in data set [9] (ApoE−/− mice, thoracic and abdominal aorta, six weeks, 0.5 mg/kg/day in drinking water) is recorded as “significant reduction”. Also, in data set [9] (setting [10]), the “Ang-II induced severe atherosclerotic lesions (H&E staining of aorta)” value was “complete protection” and the “luminal diameter compared to Ang-II alone” value is on record as “significantly restored”.
